Laboratory results published in PubChem BioAssay (NCI).
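Tested at 5 concentrations; 48 h exposure; 96-well plates; endpoints linearly interpolated, else capped at highest concentration. At the GI50, growth is halved. TGI: concentration producing complete growth inhibition.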 Residues, ends and D or L forms follow the SMILES beside them. *: point of attachment. Cbz = O=C(OCc1ccccc1)*

Assays:
Assay in all cases: DTP human tumour cell line panel, 48 h
HL-60(TB) leukemia = tested on: HL-60(TB) leukemia
HOP-62 NSCLC = tested on: HOP-62 NSCLC
HS 578T breast = tested on: HS 578T breast
HT29 colon = tested on: HT29 colon
MOLT-4 leukemia = tested on: MOLT-4 leukemia
NCI-H460 lung = tested on: NCI-H460 lung
RPMI-8226 leukemia = tested on: RPMI-8226 leukemia
RXF 393 renal = tested on: RXF 393 renal
SF-539 CNS = tested on: SF-539 CNS
CCRF-CEM leukemia = tested on: CCRF-CEM leukemia

SMILES | GI50 (HL-60(TB) leukemia) [µM] | TGI (HL-60(TB) leukemia) [µM] | GI50 (HOP-62 NSCLC) [µM] | TGI (HOP-62 NSCLC) [µM] | GI50 (HS 578T breast) [µM] | TGI (HS 578T breast) [µM] | GI50 (HT29 colon) [µM] | TGI (HT29 colon) [µM] | GI50 (MOLT-4 leukemia) [µM] | TGI (MOLT-4 leukemia) [µM] | GI50 (NCI-H460 lung) [µM] | TGI (NCI-H460 lung) [µM] | GI50 (RPMI-8226 leukemia) [µM] | TGI (RPMI-8226 leukemia) [µM] | GI50 (RXF 393 renal) [µM] | TGI (RXF 393 renal) [µM] | GI50 (SF-539 CNS) [µM] | TGI (SF-539 CNS) [µM] | GI50 (CCRF-CEM leukemia) [µM] | TGI (CCRF-CEM leukemia) [µM]
Nc1nn(C(=O)Nc2c(F)cccc2F)c2ccccc12 | 33.2 | > 100 | 51 | > 100 | 73 | > 100 | 74.6 | > 100 | 32.7 | > 100 | 33.4 | > 100 | 16.1 | > 100 | 20.2 | > 100 | 31.4 | > 100 |  | 
Cn1c(-c2c(N)n(Cc3ccc(F)cc3)c3nc(C#N)c(C#N)nc23)nc2ccccc21 | 3.76 | > 50 | 2.32 | 22.5 | 4.67 | 26.7 |  |  |  |  | 2.21 | 25.2 | 1.35 | 7.17 | 1.7 | 4.86 | 13.2 | > 50 |  | 
C=C1C(=O)O[C@H]2[C@H]1CC/C(CNC(=O)/C=C/c1ccccc1F)=C\CC[C@@]1(C)O[C@@H]21 |  |  | 3.89 | 16.6 | 2.42 | 16.9 | 1.22 | 3.08 | 1.55 | 4.86 | 2.36 | 6.19 | 1.41 | 5.84 | 1.24 | 2.7 | 1.26 | 2.94 | 0.416 | 2.92
CC(C)C(=O)c1c(C(F)(F)F)n([O-])c2ccccc2[n+]1=O |  |  | 1.78 | 3.49 | 5.4 | 18.1 | 9.43 | > 36.4 | 1.27 | 9.65 | 1.72 | 5.56 | 0.178 | 1.31 | 2.35 | 13 | 1.81 | 5.17 | 1.57 | 9.83
O=[N+]([O-])C=C1c2ccccc2-c2ccccc21 |  | 23.7 |  | 31.3 |  |  |  | 37.3 |  | 53.5 |  | 38.9 |  | 5.5 |  | 31.3 |  | 31.3 |  | 80.8
CC(C)C[C@@H](C=O)NC(=O)[C@H](CC(C)C)NC(=O)[C@H](CC(C)C)NC(=O)OCc1ccccc1 (Cbz-Leu-Leu-Leu-aldehyde) | 0.33 | 1.89 |  |  | 0.437 | > 100 | 0.268 | 0.647 | 0.322 | 11.9 | 0.455 | 2.02 | 0.356 | 13.8 | 0.199 | 0.371 | 0.256 | 0.703 | 0.378 | 64.2
CC(=O)OCCCC#CC#Cc1cccc(=O)o1 |  |  | 15.5 | 30.4 | 25.8 | 56.7 | 24.9 | 71.5 | 6.59 | > 100 | 20 | 42.2 | 4.19 | 20.3 | 24.3 | 43.8 |  |  |  | 
CN(/N=C\c1ccnc2ccccc12)c1ccccc1 |  | 39.2 |  | 81.6 |  |  |  | 35.9 |  | > 100 |  | 55.5 |  | > 100 |  | 77.3 |  | 71.6 |  | 45.1
COc1ccc(Cn2cc3c(c2-c2cc(OC)c(OC)c(OC)c2)CCc2c(CO)noc2-3)cc1 | 0.231 | 0.656 | 0.397 | 25.7 | 0.371 | 35.8 | 0.323 | 13 | 0.458 | 27.8 | 0.341 | 13.6 | 0.41 | 13.6 |  |  | 0.213 | 0.658 | 0.347 | 23.7
CC(C)=NNC(=S)NC12CC3CC(CC(C3)C1)C2 |  | > 100 |  | > 100 |  |  |  | > 100 |  | > 100 |  | > 100 |  | > 100 |  | > 100 |  | > 100 |  | > 100
c1ccc2c(CNCCCCCCCCNCc3cccc4ccccc34)cccc2c1 |  | 4.64 |  | 30.1 |  |  |  | 3.35 |  | 9.64 |  | 2.8 |  | 3.87 |  | 3.13 |  | 3.04 |  | 5.21
O=S(=O)(NCCCNc1cc(-c2cn(-c3ccccc3)nc2-c2cccc(O)c2)ccn1)c1ccc(Br)cc1 | 1.79 | 4.92 | 1.88 | 4.59 | 1.16 | 4.82 | 0.639 | 2.35 | 1.13 | 3.73 | 1.77 | 3.72 | 1.45 | 4.68 | 1.09 | 3.5 | 1.69 | 4.01 |  | 
Cc1ccc(Sc2ccccc2N)cc1 |  | 49.6 |  | 29.6 |  |  |  | > 100 |  | 58.4 |  | > 100 |  | 53.4 |  | 47.2 |  | 87.9 |  | 70
O=C(O)c1cn(C2CC2)c2cc(N3CCN(Cc4c(O)ccc5ccccc45)CC3)c(F)cc2c1=O | > 100 | > 100 | 3.99 | 43.1 | 2.74 | 17.2 | 8.5 | > 100 |  |  |  |  | 12 | > 100 | 2.68 | 8.34 | 2.1 | 4.9 | 20.5 | > 100
COc1cc(CCC(=O)NC[C@@H](O)c2ccccc2)ccc1O | > 100 | > 100 | > 100 | > 100 |  |  | > 100 | > 100 | > 100 | > 100 | > 100 | > 100 | > 100 | > 100 | > 100 | > 100 | > 100 | > 100 | > 100 | > 100
COc1ccc(-c2[nH]nc(N)c2-c2cc(OC)c(OC)c(OC)c2)cc1 | 0.0236 | 0.0622 | 0.0442 | > 100 | 0.0352 | > 59 | 0.0343 | 18.2 | 0.0487 |  | 0.0363 | > 33.7 | 0.0352 | 7.69 |  |  | 0.0246 | 0.0665 | 0.0325 | 
